Test results taken from US6737383B1, “Herbicidal oxadiazolidines” (priority 1999, dated 2004).

Key:
corn = assay: Test C postemergence corn; format: in vivo, Zea mays; conditions: 0 to 100 scale, 0 no effect, 100 complete control
How it was run: (§1)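 Visual ratings on a 0 to 100 scale, where 0 means no effect and 100 complete control, were made versus untreated controls roughly 14 to 21 days after postemergence treatment. Test compounds were formulated in a non-phytotoxic solvent mixture containing a surfactant.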

cotton = assay: Test C postemergence cotton; format: in vivo, Gossypium hirsutum; conditions: 0 to 100 scale, 0 no effect, 100 complete control
How it was run: as §1

eastern black nightshade = assay: Test C postemergence eastern black nightshade; format: in vivo, Solanum ptycanthum; conditions: 0 to 100 scale, 0 no effect, 100 complete control
How it was run: as §1

field bindweed = assay: Test C postemergence field bindweed; format: in vivo, Convolvulus arvensis; conditions: 0 to 100 scale, 0 no effect, 100 complete control
Method: (§2) Compounds evaluated in this test were formulated in a non-phytotoxic solvent mixture which included a surfactant and applied to plants that were grown for various periods of time before treatment (postemergence application). A mixture of sandy loam soil and greenhouse potting mix in a 60:40 ratio was used for the postemergence test.
(§3) Plantings of these crops and weed species were adjusted to produce plants of appropriate size for the postemergence test. All plant species were grown using normal greenhouse practices. Crop and weed species include arrowleaf sida (Sida rhombifolia), barnyardgrass (Echinochloa crus-galli), cocklebur (Xanthium strumarium), common ragweed (Ambrosia elatior), corn (Zea mays), cotton (Gossypium hirsutum), eastern black nightshade (Solanum ptycanthum), fall panicum (Panicum dichotomiflorum), field bindweed (Convolvulus arvensis), giant foxtail (Setaria faberii), hairy beggarticks (Bidens pilosa), ivyleaf morningglory (Ipomoea hederacea), johnsongrass (Sorghum halepense), ladysthumb smartweed (Polygonum persicaria), lambsquarters (Chenopodium album), large crabgrass (Digitaria sanguinalis), purple nutsedge (Cyperus rotundus), redroot pigweed (Amaranthus retroflexus), soybean (Glycine max), surinam grass (Brachiaria decumbens), velvetleaf (Abutilon theophrasti) and wild poinsettia (Euphorbia heterophylla).
(§4) Treated plants and untreated controls were maintained in a greenhouse for approximately 14, to 21 days, after which all treated plants were compared to untreated controls and visually evaluated. Plant response ratings, summarized in Table C, were based upon a 0 to 100 scale where 0 was no effect and 100 was complete control. A dash response (−) means no test result.

purple nutsedge = assay: Test C postemergence purple nutsedge; format: in vivo, Cyperus rotundus; conditions: 0 to 100 scale, 0 no effect, 100 complete control
Method: as §2, §3, §4

redroot pigweed = assay: Test C postemergence redroot pigweed; format: in vivo, Amaranthus retroflexus; conditions: 0 to 100 scale, 0 no effect, 100 complete control
Method: as §2, §3, §4

wild poinsettia = assay: Test C postemergence wild poinsettia; format: in vivo, Euphorbia heterophylla; conditions: 0 to 100 scale, 0 no effect, 100 complete control
How it was run: as §1

blackgrass = assay: Test E blackgrass; format: in vivo, Alopecurus myosuroides; conditions: Postemergence
Method: as §2, with “in the 1- to 4-leaf stage” for “grown for various periods of time before treatment”
(§5) Plantings of these crops and weed species were adjusted to produce plants of appropriate size for the postemergence test. All plant species were grown using normal greenhouse practices. Crop and weed species include annual bluegrass (Poa annua), blackgrass (Alopecurus myosuroides), black nightshade (Solanum nigra), chickweed (Stellaria media), common poppy (Papaver rhoeas), deadnettle (Lamium amplexicaule), downy brome (Bromus tectorum), field violet (Viola arvensis), galium (Galium aparine), green foxtail (Setaria viridis), Italian ryegrass (Lolium multiflorum), jointed goatgrass (Aegilops cylindrica), kochia (Kochia scoparia), lambsquarters (Chenopodium album), littleseed canarygrass (Phalaris minor), rape (Brassica napus), redroot pigweed (Amaranthus retroflexus), Russian thistle (Salsola kali), scentless chamomile (Matricaria inodora), spring barley (Hordeum vulgare), sugar beet (Beta vulgaris), sunflower (Helianthus annuus), ivyleaf speedwell (Veronica hederaefolia), spring wheat (Triticum aestivum), winter wheat (Triticum aestivum), wild buckwheat (Polygonum convolvulus), wild mustard (Sinapis arvensis), wild oat (Avena fatua), windgrass (Apera spica-venti) and winter barley (Hordeum vulgare).
(§6) Treated plants and untreated controls were maintained in a greenhouse for approximately 21 to 28 days, after which all treated plants were compared to untreated controls and visually evaluated. […] A dash response (-) means no test result.

black nightshade = assay: Test E black nightshade; format: in vivo, Solanum nigra; conditions: Postemergence
Method: as §2, with “in the 1- to 4-leaf stage” for “grown for various periods of time before treatment”
as §5, §6

common poppy = assay: Test E common poppy; format: in vivo, Papaver rhoeas; conditions: Postemergence; for Plant response rating, Comnion poppy: Rate 125 g/ha
Method: as §2, with “in the 1- to 4-leaf stage” for “grown for various periods of time before treatment”
as §5, §6

deadnettle = assay: Test E deadnettle; format: in vivo, Lamium amplexicaule; conditions: Postemergence
How it was run: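 Plants were grown under normal greenhouse practice; for postemergence, in sandy loam soil mixed 60:40 with potting mix, treated at the 1- to 4-leaf stage. The compound was in a non-phytotoxic solvent carrying a surfactant. After roughly 21 to 28 days plants were scored visually against untreated plants.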

ivyleaf speedwell = assay: Test E postemergence ivyleaf speedwell; format: in vivo, Veronica hederaefolia
Method: as §2, with “in the 1- to 4-leaf stage” for “grown for various periods of time before treatment”
as §5, §6

spring wheat = assay: Test E spring wheat; format: in vivo, Triticum aestivum; conditions: Postemergence
Method: as §2, with “in the 1- to 4-leaf stage” for “grown for various periods of time before treatment”
as §5, §6

field violet = assay: Test E field violet; format: in vivo, Viola arvensis; conditions: Preemergence
littleseed canarygrass = assay: Test E littleseed canarygrass; format: in vivo, Phalaris minor; conditions: Preemergence
sunflower = assay: Test E sunflower; format: in vivo, Helianthus annuus; conditions: Preemergence
wild buckwheat = assay: Test E wild buckwheat; format: in vivo, Polygonum convolvulus; conditions: Preemergence
[1] = Rate 250 g/ha, 0 to 100 scale (0 no effect, 100 complete control)
[2] = Rate 500 g/ha, 0 to 100 scale, 0 no effect, 100 complete control
[3] = Rate 125 g/ha, 0 to 100 scale (0 no effect, 100 complete control)
[4] = Rate 500 g/ha, 0 to 100 scale where 0 is no effect and 100 is complete control
[5] = Rate 250 g/ha, 0 to 100 scale where 0 is no effect and 100 is complete control

## CCn1c(=O)on(C(=O)N(c2ccccc2)C(C)C)c1=O [Compound 117]
corn; Rate 140 g/ha
  Plant response rating, Corn: 0
corn; Rate 280 g/ha
  Plant response rating, Corn: 0
corn; Rate 560 g/ha
  Plant response rating, Corn: 40
corn; Rate 1120 g/ha
  Plant response rating, Corn: 85
cotton; Rate 140 g/ha
  Plant response rating Cotton: 5
cotton; Rate 280 g/ha
  Plant response rating Cotton: 10
cotton; Rate 560 g/ha
  Plant response rating Cotton: 30
cotton; Rate 1120 g/ha
  Plant response rating Cotton: 60
Eastern black nightshade; Rate 140 g/ha
  Plant response rating E. blacknightsh: 0
Eastern black nightshade; Rate 280 g/ha
  Plant response rating E. blacknightsh: 0
Eastern black nightshade; Rate 560 g/ha
  Plant response rating E. blacknightsh: 70
Eastern black nightshade; Rate 1120 g/ha
  Plant response rating E. blacknightsh: 80
Field bindweed; Rate 140 g/ha
  Plant response rating Field bindweed: 0
Field bindweed; Rate 280 g/ha
  Plant response rating Field bindweed: 30
Field bindweed; Rate 560 g/ha
  Plant response rating Field bindweed: 30
Field bindweed; Rate 1120 g/ha
  Plant response rating Field bindweed: 40
Purple nutsedge; Rate 140 g/ha
  Plant response rating, Purple nutsedge: 0
Purple nutsedge; Rate 280 g/ha
  Plant response rating, Purple nutsedge: 0
Purple nutsedge; Rate 560 g/ha
  Plant response rating, Purple nutsedge: 10
Purple nutsedge; Rate 1120 g/ha
  Plant response rating, Purple nutsedge: 80
Redroot pigweed; Rate 140 g/ha
  Plant response rating, Redroot pigweed: 0
Redroot pigweed; Rate 280 g/ha
  Plant response rating, Redroot pigweed: 0
Redroot pigweed; Rate 560 g/ha
  Plant response rating, Redroot pigweed: 0
Redroot pigweed; Rate 1120 g/ha
  Plant response rating, Redroot pigweed: 30
Wild poinsettia; Rate 140 g/ha
  Plant response rating Wild poinsettia: 0
Wild poinsettia; Rate 280 g/ha
  Plant response rating Wild poinsettia: 0
Wild poinsettia; Rate 560 g/ha
  Plant response rating Wild poinsettia: 0
Wild poinsettia; Rate 1120 g/ha
  Plant response rating Wild poinsettia: 0

## CC(C)N(C(=O)n1oc(=O)n(C(C)C)c1=O)c1ccc(Cl)cc1 [Compound 114]
blackgrass; Rate 125 g/ha, 0 to 100 scale
  Plant response rating, Blackgrass: 0
blackgrass; [1]
  Plant response rating, Blackgrass: 20
blackgrass; [2]
  Plant response rating, Blackgrass: 65
Black nightshade; Rate 125 g/ha, 0 to 100 scale
  Plant response rating, Blk nightshade: 50
Black nightshade; [1]
  Plant response rating, Blk nightshade: 40
Black nightshade; [2]
  Plant response rating, Blk nightshade: 80
Common poppy; 0 to 100 scale
  Plant response rating, Comnion poppy: 0
Common poppy; [1]
  Plant response rating, Common poppy: 10
Common poppy; [2]
  Plant response rating, Common poppy: 20
deadnettle; Rate 125 g/ha, 0 to 100 scale
  Plant response rating, Deadnettle: 20
deadnettle; [1]
  Plant response rating, Deadnettle: 10
deadnettle; [2]
  Plant response rating, Deadnettle: 70
Ivyleaf speedwell; Rate 125 g/ha, 0 to 100 scale
  Plant response rating, Veronica hedera: 10
Ivyleaf speedwell; [1]
  Plant response rating, Veronica hedera: 50
Ivyleaf speedwell; [2]
  Plant response rating, Veronica hedera: 70
Spring wheat; Rate 125 g/ha, 0 to 100 scale
  Plant response rating, Spring Wheat: 10
Spring wheat; [1]
  Plant response rating, Spring Wheat: 20
Spring wheat; [2]
  Plant response rating, Spring Wheat: 30
Field violet; [3]
  Plant response rating, Field violet: 0
Field violet; Rate 250 g/ha, 0 to 100 scale
  Plant response rating, Field violet: 0
Field violet; [4]
  Plant response rating, Field violet: 10
Littleseed canarygrass; [3]
  Plant response rating, LS canarygrass: 50
Littleseed canarygrass; Rate 250 g/ha, 0 to 100 scale
  Plant response rating, LS canarygrass: 60
Littleseed canarygrass; [4]
  Plant response rating, LS canarygrass: 80
sunflower; [3]
  Plant response rating, Sunflower: 0
sunflower; Rate 250 g/ha, 0 to 100 scale
  Plant response rating, Sunflower: 0
sunflower; [4]
  Plant response rating, Sunflower: 5
Wild buckwheat; [3]
  Plant response rating, Wild buckwheat: 20
Wild buckwheat; Rate 250 g/ha, 0 to 100 scale
  Plant response rating, Wild buckwheat: 50
Wild buckwheat; [4]
  Plant response rating, Wild buckwheat: 80

## CC(C)N(C(=O)n1oc(=O)n(C(C)C)c1=O)c1ccc(F)cc1 [Compound 131]
corn; Rate 140 g/ha
  Plant response rating, Corn: 0
corn; Rate 280 g/ha
  Plant response rating, Corn: 0
corn; Rate 560 g/ha
  Plant response rating, Corn: 5
corn; Rate 1120 g/ha
  Plant response rating, Corn: 40
cotton; Rate 140 g/ha
  Plant response rating Cotton: 10
cotton; Rate 280 g/ha
  Plant response rating Cotton: 10
cotton; Rate 560 g/ha
  Plant response rating Cotton: 40
cotton; Rate 1120 g/ha
  Plant response rating Cotton: 65
Eastern black nightshade; Rate 140 g/ha
  Plant response rating E. blacknightsh: 0
Eastern black nightshade; Rate 280 g/ha
  Plant response rating E. blacknightsh: 10
Eastern black nightshade; Rate 560 g/ha
  Plant response rating E. blacknightsh: 50
Eastern black nightshade; Rate 1120 g/ha
  Plant response rating E. blacknightsh: 80
Field bindweed; Rate 140 g/ha
  Plant response rating Field bindweed: 0
Field bindweed; Rate 280 g/ha
  Plant response rating Field bindweed: 0
Field bindweed; Rate 560 g/ha
  Plant response rating Field bindweed: 0
Field bindweed; Rate 1120 g/ha
  Plant response rating Field bindweed: 60
Purple nutsedge; Rate 140 g/ha
  Plant response rating, Purple nutsedge: 0
Purple nutsedge; Rate 280 g/ha
  Plant response rating, Purple nutsedge: 0
Purple nutsedge; Rate 560 g/ha
  Plant response rating, Purple nutsedge: 0
Purple nutsedge; Rate 1120 g/ha
  Plant response rating, Purple nutsedge: 80
Redroot pigweed; Rate 140 g/ha
  Plant response rating, Redroot pigweed: 10
Redroot pigweed; Rate 280 g/ha
  Plant response rating, Redroot pigweed: 10
Redroot pigweed; Rate 560 g/ha
  Plant response rating, Redroot pigweed: 20
Redroot pigweed; Rate 1120 g/ha
  Plant response rating, Redroot pigweed: 30
Wild poinsettia; Rate 140 g/ha
  Plant response rating Wild poinsettia: 0
Wild poinsettia; Rate 280 g/ha
  Plant response rating Wild poinsettia: 10
Wild poinsettia; Rate 560 g/ha
  Plant response rating Wild poinsettia: 30
Wild poinsettia; Rate 1120 g/ha
  Plant response rating Wild poinsettia: 80
blackgrass; Rate 62 g/ha, 0 to 100 scale
  Plant response rating, Blackgrass: 85
blackgrass; Rate 125 g/ha, 0 to 100 scale
  Plant response rating, Blackgrass: 20
blackgrass; [2]
  Plant response rating, Blackgrass: 75
blackgrass; [5]
  Blackgrass plant response rating: 60
Black nightshade; Rate 62 g/ha, 0 to 100 scale
  Plant response rating, Blk nightshade: 50
Black nightshade; Rate 125 g/ha, 0 to 100 scale
  Plant response rating, Blk nightshade: 50
Black nightshade; [2]
  Plant response rating, Blk nightshade: 70
Black nightshade; [5]
  Blk nightshade plant response rating: 60
Common poppy; Rate 62 g/ha, 0 to 100 scale
  Plant response rating, Common poppy: 65
Common poppy; 0 to 100 scale
  Plant response rating, Comnion poppy: 0
Common poppy; [2]
  Plant response rating, Common poppy: 0
Common poppy; [5]
  Common poppy plant response rating: 0
deadnettle; Rate 62 g/ha, 0 to 100 scale
  Plant response rating, Deadnettle: 30
deadnettle; Rate 125 g/ha, 0 to 100 scale
  Plant response rating, Deadnettle: 30
deadnettle; [2]
  Plant response rating, Deadnettle: 50
deadnettle; [5]
  Deadnettle plant response rating: 30
Ivyleaf speedwell; Rate 125 g/ha, 0 to 100 scale
  Plant response rating, Veronica hedera: 0
Ivyleaf speedwell; [5]
  Veronica hedera plant response rating: 0
Ivyleaf speedwell; [2]
  Plant response rating, Veronica hedera: 20
Spring wheat; Rate 62 g/ha, 0 to 100 scale
  Plant response rating, Spring Wheat: 5
Spring wheat; Rate 125 g/ha, 0 to 100 scale
  Plant response rating, Spring Wheat: 0
Spring wheat; [2]
  Plant response rating, Spring Wheat: 40
Spring wheat; [5]
  Spring Wheat plant response rating: 0
Field violet; [3]
  Plant response rating, Field violet: 20
Field violet; Rate 250 g/ha
  Field violet plant response rating (0 to 100 scale): 20
Field violet; [4]
  Plant response rating, Field violet: 40
Littleseed canarygrass; [3]
  Plant response rating, LS canarygrass: 70
Littleseed canarygrass; Rate 250 g/ha
  LS canarygrass plant response rating (0 to 100 scale): 70
Littleseed canarygrass; [4]
  Plant response rating, LS canarygrass: 100
sunflower; [3]
  Plant response rating, Sunflower: 20
sunflower; Rate 250 g/ha
  Sunflower plant response rating (0 to 100 scale): 20
sunflower; [4]
  Plant response rating, Sunflower: 20
Wild buckwheat; [3]
  Plant response rating, Wild buckwheat: 30
Wild buckwheat; Rate 250 g/ha
  Wild buckwheat plant response rating (0 to 100 scale): 70
Wild buckwheat; [4]
  Plant response rating, Wild buckwheat: 100
